What all share (test): NCI-60 cell line screen, 48 h
Assay [1] concerns OVCAR-3 ovarian.
Assay [2] relates to HL-60(TB) leukemia.
In assay [3] the test system is LOX IMVI melanoma.
Assay [4] relates to SF-539 CNS.
Assay [5] deals with RXF 393 renal.
Assay [6] concerns K-562 leukemia.
Assay [7] deals with HCT-116 colon.
Assay [8] relates to SK-MEL-5 melanoma.
Assay [9] concerns KM12 colon.
The test system of assay [10] is UO-31 renal.
Assay [11] deals with COLO 205 colon.
Assay [12] deals with CAKI-1 renal.
Assay [13] concerns ACHN renal.
Assay [14] concerns SF-268 CNS.
For assay [15], the system named is HCT-15 colon.
In assay [16] the test system is SN12C renal.
The test system of assay [17] is MDA-MB-231 breast.
In assay [18] the test system is EKVX NSCLC.

Here are results for 8 compounds from PubChem BioAssay (NCI).

SMILES strings stand for the structures.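 48-hour exposure; five concentrations; linearly interpolated endpoints. TGI: total growth inhibition.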

On to `CCOP(=O)(OCC)C(Nc1cccc([N+](=O)[O-])c1)c1ccccc1` (stereo not drawn), for which the TGI in [1], in assay [2], in [3], in assay [4], in assay [5] and in assay [6] was greater than 100 µM in each case. For the same compound, the TGI in assay [7], in assay [8], in assay [9], in assay [10], in assay [11] and in assay [12] was greater than 100 µM each time. For the same compound, the TGI in assay [13], in [14], in assay [15], in assay [16], in [17] and in assay [18] was greater than 100 µM each time.
In the case of `CC(=O)OC1COC(n2nc(/C=C/c3ccc(Cl)cc3)c(=O)n(/N=C/c3ccccc3)c2=S)C(OC(C)=O)C1OC(C)=O` (stereo not drawn), the TGI in assay [1], in [2], in [3], in assay [4], in assay [5] and in [6] was greater than 100 µM throughout. The TGI in [7], in [8], in [9], in assay [10], in assay [11] and in [12] was greater than 100 µM throughout. Also, the TGI in assay [13], in [14], in [15], in [16], in assay [17] and in assay [18] was greater than 100 µM in each case.
Regarding `C(=C\c1nccs1)/c1cccc(/C=C/c2nccs2)n1`, the TGI in [1], in assay [2], in [3], in assay [4], in [5] and in assay [6] was greater than 50 µM in each case. For the same compound, the TGI in assay [7], in assay [8], in assay [9], in assay [10], in assay [11] and in assay [12] was greater than 50 µM throughout. Also, the TGI in [13], in assay [14], in assay [15], in assay [16], in [17] and in [18] was greater than 50 µM each time.
Take `CC(C)C1OC2(C)OC(=N)C1(C#N)C(C#N)(C#N)C2C` (stereo not drawn): the TGI in [1] was 33.4 µM; in assay [2], 37 µM; in assay [3], 41.5 µM; in assay [4], 66 µM; in assay [5] it was greater than 100 µM; in assay [6], greater than 100 µM. The TGI is 78.2 µM in assay [7]; 26.6 µM in [8]; greater than 100 µM in assay [9]; greater than 100 µM in assay [10]; 27.6 µM in assay [11]; 22.8 µM in [12]. The TGI in assay [13] is greater than 100 µM; in assay [14] it was 56.4 µM; in assay [15] it was 25.3 µM; in [16], 26.8 µM; in [17] it was 31.8 µM; in assay [18] it was 53.4 µM.
Turning to `O=C(N/N=C/c1ccc([N+](=O)[O-])cc1)c1cccc2nc3ccccc3nc12`, the TGI was greater than 100 µM in assay [1]; greater than 100 µM in assay [2]; greater than 100 µM in [3]; greater than 65.6 µM in assay [4]; greater than 80.7 µM in [5]; greater than 100 µM in assay [6]. In addition, the TGI in assay [7], in assay [8], in [9], in [10], in [11] and in [12] was greater than 100 µM throughout. Further, the TGI in assay [13] was greater than 73.8 µM; in assay [14], greater than 100 µM; in [15], greater than 100 µM; in assay [16], greater than 100 µM; in [17], greater than 100 µM; in assay [18] it was greater than 100 µM.
For the compound `CN1CCN(c2cc3c(cc2F)c(=O)c(C(=O)O)cn3C2CC2)CC1CC#N` (stereo not drawn), the TGI in assay [1], in [2], in [3], in assay [4], in assay [5] and in [6] was greater than 100 µM each time. Besides, the TGI in assay [7], in assay [8], in assay [9], in assay [10], in [11] and in assay [12] was greater than 100 µM each time. In addition, the TGI in [13], in assay [14], in [15], in assay [16], in assay [17] and in [18] was greater than 100 µM throughout.
For `Cc1ccccc1NC(=O)C(=O)CC(=O)c1sc(Nc2ccccc2[N+](=O)[O-])nc1C`, the TGI in assay [1] was 79.5 µM; in [2], greater than 100 µM; in assay [3], greater than 100 µM; in assay [4] it was 91 µM; in assay [5], 89.1 µM; in [6], greater than 100 µM. The TGI is greater than 100 µM in [7]; greater than 100 µM in assay [8]; greater than 100 µM in assay [9]; 32.4 µM in assay [10]; greater than 100 µM in assay [11]; greater than 100 µM in assay [12]. Further, the TGI in assay [13] is 48.3 µM; in [14], greater than 100 µM; in [15], greater than 100 µM; in assay [16], greater than 100 µM; in [17], 40.2 µM; in assay [18] it was greater than 100 µM.
On to `Cc1nc2ccc(F)cc2c2c1CCO2`, for which the TGI in [2] was 55.2 µM; in assay [3] it was greater than 100 µM; in [4], greater than 100 µM; in assay [5], greater than 100 µM; in assay [6], greater than 100 µM; in [7], greater than 100 µM. In addition, the TGI in assay [8] is greater than 100 µM; in assay [9] it was greater than 100 µM; in assay [10], greater than 100 µM; in [11], greater than 100 µM; in [12] it was 96 µM; in assay [13], greater than 100 µM. The TGI in assay [14] was greater than 100 µM; in assay [15] it was greater than 100 µM; in assay [16], greater than 100 µM; in assay [17], 93.6 µM; in assay [18] it was greater than 100 µM.
